Measurements taken from patent publication US20220389003A1, “4-SUBSTITUTED INDOLE AND INDAZOLE SULFONAMIDO DERIVATIVES AS PARG INHIBITORS” (IDEAYA BIOSCIENCES, INC., priority 2019, published 2022).

Columns and labels:
PARG [1] = biological target: T1, PARG (Homo sapiens, UniProt Q86W56); assay: Inhibition of PARG cellular assay (PAR foci in HeLa cells after MMS); assay type: cell-based; set-up: endogenous in cells; host or cells: HeLa; settings: compound 1 h then MMS 1 h
How it was run: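 HeLa cells pretreated with compound for 1 h, then given MMS for a further 1 h, fixed and immunostained for PAR polymer. High-content imaging quantified nuclear PAR foci intensity (PAR Foci IC50) and percent cells with foci signal >1.3 (PAR % positive IC50).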

PARG [2] = biological target: T1, PARG; assay: Inhibition of PARG enzymatic assay (TR-FRET enzymatic IC50 assay); assay type: biochemical; set-up: purchased Peak Proteins; settings: hPARG 250 pM, biotinylated-PARylated PARP substrate 30 nM
How it was run: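 Compound preincubated 1 h with 250 pM His-tagged hPARG, then 30 nM biotinylated PARylated hPARP1 substrate added for 10 min; buffer 50 mM Tris-HCl pH 7.4, EDTA/EGTA, 1 mM DTT, 23° C. TR-FRET read after 1 h with anti-His ULight antibody and streptavidin-europium; inhibition scaled between DMSO and no-enzyme controls.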

[3] = test system: HCC1806-XRCC1 KD (knock down) cells; assay: Cellular viability assay (Cell Titer-Glo); assay type: cell-based; settings: 96 h, HCC1806-shXRCC1 cells, 4 days of incubation, read-out: PARGi cell viability
How it was run: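 XRCC1-knockdown HCC1806 cells seeded 24 h before dosing; 9-point 1:3 dilution from 30 μM top concentration, duplicates, 4-day incubation. Viability by CellTiter-Glo luminescence, normalized to DMSO wells as % of control; curves fit with 4-parameter inhibition model.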

T1 sequence (Q86W56 whole entry): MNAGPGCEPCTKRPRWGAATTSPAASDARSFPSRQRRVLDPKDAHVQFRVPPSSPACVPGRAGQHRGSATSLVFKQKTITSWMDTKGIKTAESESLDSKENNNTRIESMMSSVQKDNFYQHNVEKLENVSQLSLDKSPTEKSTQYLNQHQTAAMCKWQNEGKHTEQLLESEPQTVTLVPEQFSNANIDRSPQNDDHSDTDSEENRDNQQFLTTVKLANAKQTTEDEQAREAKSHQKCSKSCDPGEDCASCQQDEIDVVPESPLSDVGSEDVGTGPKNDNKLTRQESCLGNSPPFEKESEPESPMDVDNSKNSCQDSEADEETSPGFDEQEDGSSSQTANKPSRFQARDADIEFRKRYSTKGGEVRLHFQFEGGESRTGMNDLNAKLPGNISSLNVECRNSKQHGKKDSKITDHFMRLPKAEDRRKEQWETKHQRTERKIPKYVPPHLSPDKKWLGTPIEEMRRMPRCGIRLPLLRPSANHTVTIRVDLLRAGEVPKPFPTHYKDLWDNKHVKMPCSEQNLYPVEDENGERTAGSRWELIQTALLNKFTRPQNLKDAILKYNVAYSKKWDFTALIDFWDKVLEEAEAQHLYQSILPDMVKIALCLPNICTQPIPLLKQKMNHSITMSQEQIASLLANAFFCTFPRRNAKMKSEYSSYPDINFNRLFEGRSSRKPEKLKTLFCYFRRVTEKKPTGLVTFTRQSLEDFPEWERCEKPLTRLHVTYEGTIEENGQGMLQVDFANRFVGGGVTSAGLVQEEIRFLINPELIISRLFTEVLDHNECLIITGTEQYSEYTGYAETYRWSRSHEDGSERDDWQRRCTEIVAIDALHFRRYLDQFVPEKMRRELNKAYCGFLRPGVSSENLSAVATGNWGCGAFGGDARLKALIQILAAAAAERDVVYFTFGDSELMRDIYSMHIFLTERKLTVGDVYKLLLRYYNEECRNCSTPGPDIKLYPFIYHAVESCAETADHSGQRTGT

Row | Compound | IC50 (PARG [1]) [nM] | IC50 (PARG [2]) [nM] | IC50 [3] [nM]
1 | N#CC1(NS(=O)(=O)c2cc(N3CCN(C(=O)N4CCCC4)CC3)c3cnn(-c4nnc(C(F)F)s4)c3c2)CC1 [Example 57, 1-[({1-[5-(difluoromethyl)(1,3,4-thiadiazol-2-yl)]-4-[4-(pyrrolidinylcarbonyl)-piperazinyl]-1H-indazol-6-yl}sulfonyl)amino]cyclopropanecarbonitrile] | ≤ 100 | ≤ 100 | < 1000
2 | CC(C)C(=O)N1C2CC1CN(c1cc(S(=O)(=O)NC3(C#N)CC3)cc3c1cnn3-c1nnc(C(F)F)s1)C2 [Example 91, 1-[({1-[5-(difluoromethyl)(1,3,4-thiadiazol-2-yl)]-4-[6-(2-methylpropanoyl)-3,6-diazabicyclo[3.1.1]hept-3-yl]-1H-indazol-6-yl}sulfonyl)amino]cyclopropanecarbonitrile] | 1000 to 10000 | 1000 to 10000 | 20000 to 30000
3 | N#CC1(NS(=O)(=O)c2cc(N3CCN4C(=O)CC[C@@H]4C3)c3cnn(-c4nnc(C(F)F)s4)c3c2)CC1 [Example 60, 1-[({4-((1R)-7-oxo-3,6-diazabicyclo[4.3.0]non-3-yl)-1-[5-(difluoromethyl)(1,3,4-thiadiazol-2-yl)]-1H-indazol-6-yl}sulfonyl)amino]cyclopropanecarbonitrile] | 100 to 300 | ≤ 100 | 1000 to 10000
4 | N#CC1(NS(=O)(=O)c2cc(N3C[C@H]4COC[C@H]4C3)c3cnn(-c4nnc(C(F)F)s4)c3c2)CC1 [Example 48, 1-[({4-((1S,5R)-7-oxa-3-azabicyclo[3.3.0]oct-3-yl)-1-[5-(difluoromethyl)(1,3,4-thiadiazol-2-yl)]-1H-indazol-6-yl}sulfonyl)amino]cyclopropanecarbonitrile] | 300 to 1000 | 100 to 300 | 1000 to 10000
5 | N#CC1(NS(=O)(=O)c2cc(N3CCOCC3)c3cnn(-c4nnc(C(F)F)s4)c3c2)CC1 [Example 100, 1-[({1-[5-(difluoromethyl)(1,3,4-thiadiazol-2-yl)]-4-morpholin-4-yl-1H-indazol-6-yl}sulfonyl)amino]cyclopropanecarbonitrile] | 300 to 1000 | 100 to 300 | 1000 to 10000
6 | C[C@@H]1CN(c2cc(S(=O)(=O)NC3(C#N)CC3)cc3c2cnn3-c2nnc(C(F)F)s2)CCN1C(=O)C1(C)CC1 [Example 108, 1-{[(4-{(3R)-3-methyl-4-[(methylcyclopropyl)carbonyl]piperazinyl}-1-[5-(difluoro-methyl)(1,3,4-thiadiazol-2-yl)]-1H-indazol-6-yl)sulfonyl]amino}cyclopropane carbonitrile] | ≤ 100 | ≤ 100 | < 1000
7 | N#CC1(NS(=O)(=O)c2cc(N3CCS(=O)(=O)CC3)c3cnn(-c4nnc(C(F)F)s4)c3c2)CC1 [Example 52, N-(1-cyanocyclopropyl)-1-(5-(difluoromethyl)-1,3,4-thiadiazol-2-yl)-4-(1,1-dioxidothiomorpholino)-1H-indazole-6-sulfonamide] | 300 to 1000 | ≤ 100 | 1000 to 10000
8 | CCN(C)C(=O)N1CCN(c2cc(S(=O)(=O)NC3(C#N)CC3)cc3c2cnn3-c2nnc(C(F)F)s2)CC1 [Example 32, [4-(1-[5-(difluoromethyl)(1,3,4-thiadiazol-2-yl)]-6-{[(cyanocyclopropyl)amino]sulfonyl}(1H-indazol-4-yl))piperazinyl]-N-ethyl-N-methylcarboxamide] | ≤ 100 | ≤ 100 | < 1000
9 | CN(C)C(=O)N1CCN(c2cc(S(=O)(=O)NC3(C#N)CC3)cc3c2cnn3-c2nnc(C(F)F)s2)CC1 [Example 43, [4-(1-[5-(difluoromethyl)(1,3,4-thiadiazol-2-yl)]-6-{[(cyanocyclopropyl)amino]sulfonyl}(1H-indazol-4-yl))piperazinyl]-N,N-dimethylcarboxamide] | ≤ 100 | ≤ 100 | < 1000
10 | Cn1ccnc1N1CCN(c2cc(S(=O)(=O)NC3(C#N)CC3)cc3c2cnn3-c2nnc(C(F)F)s2)CC1 [Example 69, 1-[({1-[5-(difluoromethyl)(1,3,4-thiadiazol-2-yl)]-4-[4-(1-methylimidazol-2-yl)piperazinyl]-1H-indazol-6-yl}sulfonyl)amino]cyclopropanecarbonitrile] | ≤ 100 | ≤ 100 | < 1000
11 | N#CC1(NS(=O)(=O)c2cc(N3CCC(O)CC3)c3cnn(-c4nnc(C(F)F)s4)c3c2)CC1 [Example 27, 1-[({1-[5-(difluoromethyl)(1,3,4-thiadiazol-2-yl)]-4-(4-hydroxypiperidyl)-1H-indazol-6-yl}sulfonyl)amino]cyclopropanecarbonitrile] | 300 to 1000 | ≤ 100 | 1000 to 10000
12 | CN1CCC(C(=O)N2CCN(c3cc(S(=O)(=O)NC4(C#N)CC4)cc4c3cnn4-c3nnc(C(F)F)s3)CC2)CC1 [Example 85, 1-{[(1-[5-(difluoromethyl)(1,3,4-thiadiazol-2-yl)]-4-{4-[(1-methyl(4-piperidyl))-carbonyl]piperazinyl}-1H-indazol-6-yl)sulfonyl]amino}cyclopropanecarbonitrile] | 1000 to 10000 | ≤ 100 | 1000 to 10000
13 | N#CC1(NS(=O)(=O)c2cc(N3CCN(C(=O)c4ccccn4)CC3)c3cnn(-c4nnc(C(F)F)s4)c3c2)CC1 [Example 87, 1-[({1-[5-(difluoromethyl)(1,3,4-thiadiazol-2-yl)]-4-[4-(2-pyridylcarbonyl)piperazinyl]-1H-indazol-6-yl}sulfonyl)amino]cyclopropanecarbonitrile] | ≤ 100 | ≤ 100 | 1000 to 10000
14 | N#CC1(NS(=O)(=O)c2cc(N3CCN(c4cccnn4)CC3)c3cnn(-c4nnc(C(F)F)s4)c3c2)CC1 [Example 95, 1-[({1-[5-(difluoromethyl)(1,3,4-thiadiazol-2-yl)]-4-(4-pyridazin-3-ylpiperazinyl)-1H-indazol-6-yl}sulfonyl)amino]cyclopropanecarbonitrile] | 100 to 300 | ≤ 100 | 1000 to 10000
15 | N#CC1(NS(=O)(=O)c2cc(N3CCC(F)CC3)c3cnn(-c4nnc(C(F)F)s4)c3c2)CC1 [Example 104, 1-[({1-[5-(difluoromethyl)(1,3,4-thiadiazol-2-yl)]-4-(4-fluoropiperidyl)-1H-indazol-6-yl}sulfonyl)amino]cyclopropanecarbonitrile] | 300 to 1000 | 300 to 1000 | 1000 to 10000
16 | CN1CCC[C@@H]1C(=O)N1CCN(c2cc(S(=O)(=O)NC3(C#N)CC3)cc3c2cnn3-c2nnc(C(F)F)s2)CC1 [Example 90, 1-{[(4-{4-[((2R)-1-methylpyrrolidin-2-yl)carbonyl]piperazinyl}-1-[5-(difluoromethyl)(1,3,4-thiadiazol-2-yl)]-1H-indazol-6-yl)sulfonyl]amino}cyclopropanecarbonitrile] | 1000 to 10000 | ≤ 100 | 1000 to 10000
17 | CNC(=O)C1CCN(c2cc(S(=O)(=O)NC3(C#N)CC3)cc3c2cnn3-c2nnc(C(F)F)s2)CC1 [Example 40, [1-(1-[5-(difluoromethyl)(1,3,4-thiadiazol-2-yl)]-6-{[(cyanocyclopropyl)amino]sulfonyl}(1H-indazol-4-yl))(4-piperidyl)]-N-methylcarboxamide] | 1000 to 10000 | ≤ 100 | 10000 to 20000
18 | N#CC1(NS(=O)(=O)c2cc(N3CCN(C(=O)C4CCCC4)CC3)c3cnn(-c4nnc(C(F)F)s4)c3c2)CC1 [Example 66, 1-[({1-[5-(difluoromethyl)(1,3,4-thiadiazol-2-yl)]-4-[4-(cyclopentylcarbonyl)piperazinyl]-1H-indazol-6-yl}sulfonyl)amino]cyclopropanecarbonitrile] | ≤ 100 | ≤ 100 | 1000 to 10000
